In patent publication US20250186627A1, “RADIOLABELED COMPOUNDS TARGETING THE PROSTATE-SPECIFIC MEMBRANE ANTIGEN” (PROVINCIAL HEALTH SERVICES AUTHORITY, priority 2022, published 2025):
*1 amine or outer side, *2 acyl side, *3 side chain or, on linkers, in order; H or OH if unused. Where a SMILES comes first, the peptide text is derived from it. [ ]: non-standard residue; d: D form. The star is where a group is joined. ξ: configuration not given here. ξLys(Nα-CO-ξAad) = O=C(O)CCCC(NC(=O)NC(CCCCN*)C(=O)O)C(=O)O; Butanoyl(4-(4-NO2Ph)) = O=C(CCCc1ccc([N+](=O)[O-])cc1)*; DOTA = O=C(O)CN1CCN(CC(=O)O)CCN(CC(=O)*)CCN(CC(=O)O)CC1; ξAla(9-anthryl) = NC(Cc1c2ccccc2cc2ccccc12)C(=O)O; X1 = O=C(C1CCC(CN[*:1])CC1)[*:2]; ξK = NCCCCC(N)C(=O)O

Tested on: NRG-mice bearing LNCaP tumors
Experiment: Biodistribution (and PET/SPECT imaging) in NRG-mice bearing LNCaP tumors
Assay type: in vivo
Conditions: Avg
Protocol: LNCaP cell line was obtained from ATCC (LNCaP clone FGC, CRL-1740). It was established from a metastatic site of left supraclavicular lymph node of human prostatic adenocarcinoma. Cells were cultured in PRMI 1640 medium supplemented with 10% FBS, penicillin (100 U/mL) and streptomycin (100 μg/mL) at 37° C. in a humidified incubator containing 5% CO2. Cells grown to 80-90% confluence were then washed with sterile phosphate-buffered saline (1×PBS pH 7.4) and trypsinization. The collected cells number was counted with a Hausser Scientific (Horsham, PA) Hemacytometer. Approximately 10 million LNCaP cells were inoculated into the left dorsal flank of immunocomprised NRG mice. The tumours were allowed to grow for 4-6 weeks and used for imaging and biodistribution studies when a volume of 200-600 mm^3 was reached.
PET imaging experiments were conducted using Siemens Inveon micro PET/CT scanner. SPECT imaging experiments were conducted using an MILabs micro SPECT/CT scanner. Each tumor bearing mouse was injected 4-6 MBq of ^68Ga or 18.5 MBq of ^177Lu labeled tracer through the tail vein under anesthesia (2% isoflurane in oxygen). The mice were allowed to recover and roam freely in their cage. At pre-defined time point, the mice were sedated again with 2% isoflurane in oxygen inhalation and positioned in the scanner. A 10-min CT scan was conducted first for localization and attenuation correction after segmentation for reconstructing the PET or SPECT images. Then, a 10-min static PET imaging or a one hour (30 min×2 frames) of static SPECT scan was performed to determined uptake in tumor and other organs. The mice were kept warm by a heating pad during acquisition.
For biodistribution studies, the mice were injected with the radiotracer as described above. The mice were anesthetized with 2% isoflurane inhalation, and euthanized by CO2 inhalation. Blood was withdrawn immediately from the heart, and the organs/tissues of interest were collected. The collected organs/tissues were weighed and counted using a Perkin Elmer (Waltham, MA) Wizard2 2480 gamma counter. The uptake in each organ/tissue was normalized to the injected dose (radioactivity) using a standard curve, and expressed as the percentage of the injected dose per gram of tissue (% ID/g).

## O=C([O-])CN1CCN(CC(=O)[O-])CCN(CC(=O)NCCCCC(NC(=O)CNC(=O)CCCc2ccc([N+](=O)[O-])cc2)C(=O)NCC(=O)NCC2CCC(C(=O)NC(Cc3c4ccccc4cc4ccccc34)C(=O)NCCCCC(NC(=O)NC(CCCC(=O)O)C(=O)O)C(=O)O)CC2)CCN(CC(=O)[O-])CC1.[225Ac+3] (stereo not drawn) [^225Ac-CCZ02017] ({Butanoyl(4-(4-NO2Ph))}-G[ξK](DOTA)G[X1][ξAla(9-anthryl)]-{ξLys(Nα-CO-ξAad)})
3 h p.i.
  Biodistribution: Adrenal gland: 3.61 % ID/g
  Biodistribution: Blood: 9.83 % ID/g
  Biodistribution: Bone: 1.24 % ID/g
  Biodistribution: Brain: 0.19 % ID/g
  Biodistribution: Fat: 1.96 % ID/g
  Biodistribution: Heart: 2.27 % ID/g
  Biodistribution: Intestine: 1.02 % ID/g
  Biodistribution: LNCaP tumor: 23.63 % ID/g
  Biodistribution: Lacrimal gland: 0.92 % ID/g
  Biodistribution: Liver: 1.90 % ID/g
  Biodistribution: Lungs: 4.93 % ID/g
  Biodistribution: Muscle: 0.80 % ID/g
  Biodistribution: Pancreas: 1.14 % ID/g
  Biodistribution: Salivary gland: 3.37 % ID/g
  Biodistribution: Seminal gland: 2.26 % ID/g
  Biodistribution: Spleen: 1.15 % ID/g
  Biodistribution: Stomach: 0.47 % ID/g
  Biodistribution: Testes: 2.73 % ID/g
  Biodistribution: Thyroid: 1.72 % ID/g
  Biodistribution: Urine: 142.80 % ID/g
  Biodistribution: kidney: 14.29 % ID/g
24 h p.i.
  Biodistribution: Adrenal gland: 0.59 % ID/g
  Biodistribution: Blood: 0.28 % ID/g
  Biodistribution: Bone: 0.30 % ID/g
  Biodistribution: Brain: 0.03 % ID/g
  Biodistribution: Fat: 0.13 % ID/g
  Biodistribution: Heart: 0.25 % ID/g
  Biodistribution: Intestine: 0.15 % ID/g
  Biodistribution: LNCaP tumor: 42.31 % ID/g
  Biodistribution: Lacrimal gland: 0.32 % ID/g
  Biodistribution: Liver: 0.68 % ID/g
  Biodistribution: Lungs: 0.58 % ID/g
  Biodistribution: Muscle: 0.06 % ID/g
  Biodistribution: Pancreas: 0.09 % ID/g
  Biodistribution: Salivary gland: 0.35 % ID/g
  Biodistribution: Seminal gland: 0.15 % ID/g
  Biodistribution: Spleen: 0.50 % ID/g
  Biodistribution: Stomach: 0.20 % ID/g
  Biodistribution: Testes: 0.38 % ID/g
  Biodistribution: Thyroid: 0.33 % ID/g
  Biodistribution: Urine: 4.30 % ID/g
  Biodistribution: kidney: 6.87 % ID/g
72 h p.i.
  Biodistribution: Adrenal gland: 24.11 % ID/g
  Biodistribution: Blood: 0.01 % ID/g
  Biodistribution: Bone: 0.34 % ID/g
  Biodistribution: Brain: 0.02 % ID/g
  Biodistribution: Fat: 0.40 % ID/g
  Biodistribution: Heart: 0.16 % ID/g
  Biodistribution: Intestine: 0.06 % ID/g
  Biodistribution: LNCaP tumor: 54.12 % ID/g
  Biodistribution: Lacrimal gland: 1.39 % ID/g
  Biodistribution: Liver: 0.51 % ID/g
  Biodistribution: Lungs: 0.19 % ID/g
  Biodistribution: Muscle: 0.04 % ID/g
  Biodistribution: Pancreas: 0.09 % ID/g
  Biodistribution: Salivary gland: 0.33 % ID/g
  Biodistribution: Seminal gland: 0.03 % ID/g
  Biodistribution: Spleen: 0.93 % ID/g
  Biodistribution: Stomach: 0.06 % ID/g
  Biodistribution: Testes: 0.33 % ID/g
  Biodistribution: Thyroid: 0.22 % ID/g
  Biodistribution: Urine: 1.33 % ID/g
  Biodistribution: kidney: 3.62 % ID/g
144 h p.i.
  Biodistribution: Adrenal gland: 0.31 % ID/g
  Biodistribution: Blood: 0.01 % ID/g
  Biodistribution: Bone: 0.23 % ID/g
  Biodistribution: Brain: 0.02 % ID/g
  Biodistribution: Fat: 0.07 % ID/g
  Biodistribution: Heart: 0.14 % ID/g
  Biodistribution: Intestine: 0.06 % ID/g
  Biodistribution: LNCaP tumor: 71.25 % ID/g
  Biodistribution: Lacrimal gland: 0.65 % ID/g
  Biodistribution: Liver: 0.71 % ID/g
  Biodistribution: Lungs: 0.13 % ID/g
  Biodistribution: Muscle: 0.02 % ID/g
  Biodistribution: Pancreas: 0.14 % ID/g
  Biodistribution: Salivary gland: 0.21 % ID/g
  Biodistribution: Seminal gland: 0.04 % ID/g
  Biodistribution: Spleen: 0.65 % ID/g
  Biodistribution: Stomach: 0.05 % ID/g
  Biodistribution: Testes: 0.29 % ID/g
  Biodistribution: Thyroid: 0.23 % ID/g
  Biodistribution: Urine: 0.55 % ID/g
  Biodistribution: kidney: 1.95 % ID/g
240 h p.i.
  Biodistribution: Adrenal gland: 0.53 % ID/g
  Biodistribution: Blood: 0.02 % ID/g
  Biodistribution: Bone: 0.57 % ID/g
  Biodistribution: Brain: 0.02 % ID/g
  Biodistribution: Fat: 0.13 % ID/g
  Biodistribution: Heart: 0.16 % ID/g
  Biodistribution: Intestine: 0.06 % ID/g
  Biodistribution: LNCaP tumor: 123.67 % ID/g
  Biodistribution: Lacrimal gland: 0.19 % ID/g
  Biodistribution: Liver: 1.49 % ID/g
  Biodistribution: Lungs: 0.18 % ID/g
  Biodistribution: Muscle: 0.08 % ID/g
  Biodistribution: Pancreas: 0.06 % ID/g
  Biodistribution: Salivary gland: 0.32 % ID/g
  Biodistribution: Seminal gland: 0.06 % ID/g
  Biodistribution: Spleen: 1.14 % ID/g
  Biodistribution: Stomach: 0.08 % ID/g
  Biodistribution: Testes: 0.27 % ID/g
  Biodistribution: Thyroid: 0.23 % ID/g
  Biodistribution: Urine: 0.41 % ID/g
  Biodistribution: kidney: 2.24 % ID/g
